Laboratory results published in article PMC12294558, “New 1,2,4-Triazole Derivatives with a N-Mannich Base Structure Based on a 4,6-Dimethylpyridine Scaffold as Anticancer Agents: Design, Synthesis, Biological Evaluation, and Molecular Modeling” (International Journal of Molecular Sciences, 2025).
Marks after values point to notes of the source that are not given here.

What was measured:
LoVo cells = test: MTT viability assay, colorectal cancer cells LoVo; assay type: cell-based, human; conditions: for SI, LoVo: CC50 CCD 841 CoTr / CC50 LoVo
Procedure: The cytotoxic effects of ten newly synthesized N-Mannich bases were assessed on the normal human intestinal epithelium (CCD 841 CoTr) and cancer cell lines: gastric cancer (EPG) and four colorectal cancer lines (Caco-2, LoVo, LoVo/Dx, and HT-29). Cell viability was evaluated using the MTT assay in accordance with Annex C of ISO 10993-5 [33].
The biological activity of the newly synthesized compounds was assessed in the context of anticancer activity. For this purpose, several gastrointestinal cancer lines were selected: gastric cancer (EPG 257, which belongs to the collection of the Laboratory of Cell Culture and Advanced Therapy at the University of Environmental and Life Sciences in Wrocław), and four colorectal cancer cell lines (LoVo, Caco-2, and HT-29) were obtained from the European Collection of Authenticated Cell Cultures (ECACC) and were delivered by Sigma-Aldrich, a certified distributor for the biobank. Additionally, LoVo cells were used to develop a doxorubicin-resistant subline, referred to as LoVo/Dx. Resistance was induced through gradual adaptation to increasing concentrations of doxorubicin, starting from 0.1 µg/mL and incrementally raised to 0.8 µg/mL. After reaching the maximum concentration, the cells were maintained in a medium containing 0.4 µg/mL doxorubicin for a period of three months to stabilize the resistant phenotype. […] The resulting LoVo/Dx subline, resistant to doxorubicin, was cultured in DMEM/F-12 medium and utilized in assays evaluating the effectiveness of novel compounds against multidrug-resistant cancer cells. […] The non-cancerous cell control was normal colonic epithelial cells (CCD 841 CoTr from American Type Culture Collection, (ATCC, Manassas, VA, USA)). Cell cultures were performed under standard conditions (5% CO2, 95% humidity, and 37 °C). Each cell line was cultured in the recommended medium: (1) HT-29 in McCoy’s 5a, (2) Caco-2 in Minimal Essential Medium (MEM, Biological Industries, Beit Haemek, Israel), (3) CCD 841 CoTr in Dulbecco’s Modified Eagle Medium (DMEM, Biological Industries, Beit Haemek, Israel), (4) LoVo in Dulbecco’s Modified Eagle Medium/F-12 (DMEM/F-12; Biological Industries, Beit Haemek, Israel), (5) LoVo/Dx in DMEM/F-12, and (6) EPG in DMEM. Culture media were supplemented with 10% fetal bovine serum (FBS, Sigma-Aldrich, Darmstadt, Germany) and antibiotics (penicillin and streptomycin; Sigma-Aldrich, Darmstadt, Germany). For assays, trypsinized (TrypLE solution, Thermo Fisher Scientific, Waltham, MA, USA) cells were seeded at appropriate densities of 10,000 cells per well for MTT and determination of apoptotic and necrotic cell numbers; 30,000 cells per well for the rhodamine accumulation assay; and 500,000 cells per well for ELISA tests.
The cytotoxicity of the compounds and drugs used as controls was assessed using the MTT assay. The assay also included a DMSO control. After seeding and allowing the cells to adhere overnight, they were treated with the tested compounds and drugs for another 24 h. After this time, the supernatant was removed, and a 1 mg/mL MTT solution was added for 2 h in 5% CO2, 95% humidity, at 37 °C. The supernatant was then removed, and isopropanol was added to dissolve the purple crystals over 30 min by shaking. Absorbance was measured at 570 nm in a Multiskan GO microplate reader (Thermo Fisher Scientific; Waltham, MA, USA). All reagents used for the assays were purchased from Sigma-Aldrich, Darmstadt, Germany.
Biological assays were performed in three independent replicates, each involving four samples. ELISA determinations were repeated three times.

[1] = biological target: T1, P-glycoprotein (HT-29 cells) (Homo sapiens, UniProt P08183); test: Rhodamine-123 accumulation assay in HT-29; assay type: cell-based; conditions: 50 µM, 24 h; versus untreated control
T1 construct: intracellular accumulation of rhodamine 123 (a fluorescent P-gp substrate analog) in P-gp-expressing cell lines (HT-29, LoVo, and LoVo/Dx); endogenous in cells; host or cells: HT-29, LoVo (ECACC via Sigma-Aldrich); LoVo/Dx (doxorubicin-selected subline of LoVo)
T1 sequence (P08183 whole entry): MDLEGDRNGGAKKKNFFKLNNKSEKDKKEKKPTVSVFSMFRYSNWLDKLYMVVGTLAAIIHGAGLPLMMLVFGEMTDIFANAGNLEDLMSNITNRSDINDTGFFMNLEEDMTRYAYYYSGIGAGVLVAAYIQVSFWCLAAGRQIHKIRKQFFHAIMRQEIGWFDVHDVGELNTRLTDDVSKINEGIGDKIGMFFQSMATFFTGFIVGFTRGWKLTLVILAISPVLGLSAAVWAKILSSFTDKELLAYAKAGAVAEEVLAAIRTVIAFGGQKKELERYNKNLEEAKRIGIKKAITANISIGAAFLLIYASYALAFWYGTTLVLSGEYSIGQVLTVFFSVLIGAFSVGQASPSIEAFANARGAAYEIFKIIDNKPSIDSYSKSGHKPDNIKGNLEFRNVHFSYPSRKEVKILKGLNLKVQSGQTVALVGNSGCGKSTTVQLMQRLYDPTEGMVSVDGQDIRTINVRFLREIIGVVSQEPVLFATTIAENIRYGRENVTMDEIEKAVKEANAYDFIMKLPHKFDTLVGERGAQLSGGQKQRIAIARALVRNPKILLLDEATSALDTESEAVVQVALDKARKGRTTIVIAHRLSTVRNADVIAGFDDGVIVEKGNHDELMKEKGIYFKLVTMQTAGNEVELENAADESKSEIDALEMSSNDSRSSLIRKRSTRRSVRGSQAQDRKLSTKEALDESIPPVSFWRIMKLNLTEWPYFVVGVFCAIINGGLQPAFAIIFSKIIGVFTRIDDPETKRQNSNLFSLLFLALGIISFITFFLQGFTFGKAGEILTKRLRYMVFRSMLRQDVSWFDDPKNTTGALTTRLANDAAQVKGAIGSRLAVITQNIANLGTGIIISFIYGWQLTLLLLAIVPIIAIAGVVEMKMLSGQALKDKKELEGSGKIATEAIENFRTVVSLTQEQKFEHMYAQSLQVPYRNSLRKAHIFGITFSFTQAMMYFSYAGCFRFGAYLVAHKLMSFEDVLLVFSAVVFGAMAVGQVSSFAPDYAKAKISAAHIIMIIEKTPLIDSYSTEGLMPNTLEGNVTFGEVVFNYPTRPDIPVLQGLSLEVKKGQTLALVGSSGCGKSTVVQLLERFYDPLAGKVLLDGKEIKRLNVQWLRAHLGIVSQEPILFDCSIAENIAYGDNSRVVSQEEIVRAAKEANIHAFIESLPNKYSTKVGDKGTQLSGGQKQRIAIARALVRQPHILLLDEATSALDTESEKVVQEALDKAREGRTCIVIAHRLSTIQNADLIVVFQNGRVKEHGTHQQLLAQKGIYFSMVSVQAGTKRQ
Description: This test measured the intracellular accumulation of rhodamine 123 (a fluorescent P-gp substrate analog) in P-gp-expressing cell lines (HT-29, LoVo, and LoVo/Dx). Following accumulation and efflux phases, the fluorescence of rhodamine 123 (Rh-123) was quantified using spectrofluorimetry. The results are illustrated in Figure 3. Verapamil, a calcium channel blocker, served as a positive control for P-gp inhibition due to its well-established ability to inhibit P-gp activity. Verapamil binds to P-gp, inhibiting its function, which increases the intracellular concentration of chemotherapeutic drugs and other P-gp substrates.
The activity was measured for cells treated with a 50 µM concentration of the compounds and drugs in the recommended media for each cell line (without FBS) in a volume of 100 µL for 24 h. In this test, verapamil served as the control. After the incubation period, a 10 mM Rhodamine-123 (Rh-123) solution was prepared in a 1:1 DMSO mixture. […] Fluorescence was measured at 485 nm excitation and 538 nm emission using a Biotek Synergy H1 microplate reader (Agilent Technologies, Inc., Santa Clara, CA, USA). […]
Results are expressed as the mean ± SD (standard deviation) relative to the respective control (E/E0), where E represents the mean result for the measured sample, and E0 represents the mean result for the control. […]

HT-29 cells = test: Annexin-V/propidium iodide apoptosis and necrosis detection; assay type: cell-based, human; conditions: HT-29, 1 µM, 24 h
Procedure: To evaluate the impact of new compounds on apoptosis induction, an annexin-V/propidium iodide staining assay was conducted on HT-29 cells, with doxorubicin serving as the positive control (Figure 4). The tested compounds 5 and 6, at a concentration of 1 µM, increased the number of cells in the apoptosis phase, although to a lesser extent than doxorubicin.
The assessment of cell death—apoptosis was performed after 24 h of incubation of HT-29 cells with a concentration of 1 µM of compounds 5 and 6 and doxorubicin. Fluorescein-conjugated annexin V in PBS with Mg^2+ and Ca^2+ ions (Thermo Fisher Scientific, Waltham, MA, USA) was then used. To ensure that all cells (both live and dead) were counted, 10 µM Hoechst (Sigma-Aldrich, Darmstadt, Germany) was added to stain cell nuclei. The culture was then incubated for 20 min at 37 °C. Apoptosis analysis was performed under a fluorescence microscope (EVOS FL, Thermo Fisher Scientific, Waltham, MA, USA), using 10× magnification, in triplicate for each compound. The open-source ImageJ platform with the Fiji plugin [57] was used to analyze the number of all cells, as well as those in the apoptotic and necrotic phases.
The fluorescence signal was interpreted as follows: green fluorescence indicated apoptotic cells (annexin V staining), red fluorescence corresponded to necrotic cells, and blue fluorescence (Hoechst staining) marked all cell nuclei.

Row | Increase of Rh-123 accumulation, HT-29 [1] [fold] | SMILES | SI, LoVo (LoVo cells) | CC50 ± SD, LoVo (LoVo cells; MTT, 24 h, Non-toxic = no toxicity in tested range 1–500 μM) | Increase in apoptotic cells compared to untreated cells (HT-29 cells) [fold] | Number of necrotic cells (HT-29 cells) | CC50 (LoVo cells; Homo sapiens, LoVo, MTT, 24 h, Non-toxic = no toxicity in tested range 1–500 μM, read-out: CC50 ± SD, LoVo) [µM]
1 | 1.23 | Cc1cc(C)c(C(=O)NCc2nn(CN3CCN(c4cccc(Cl)c4)CC3)c(=S)n2-c2ccccc2)c(S)n1 [Compound 5, 4,6-dimethyl-N-[(4-phenyl-5-thioxo-2-{[4-(3-chlorophenyl)piperazinyl]methyl}-4,5-dihydro-1H-1,2,4-triazol-3-yl)methyl]-2-sulfanylpyridine-3-carboxamide] | >>1 ^c | Non-toxic ^b | > 3.5 | significant rise | –
2 | 1.46 | Cc1ccc(N2CCN(Cn3nc(CNC(=O)c4c(C)cc(C)nc4S)n(-c4ccccc4)c3=S)CC2)cc1 [Compound 6] | 2.37 | – | ~5 | – | 163 ± 4.6
